The source of these data is patent publication US10456344B2, “Hair composition” (Conopco, Inc., priority 2014, dated 2019).

Assay [1] deals with NADP(H): quinone oxidoreductase (NQO-1). The assay is described as follows: NQO-1 gene expression assay of hair follicle cells (real time PCR). Type of assay: cell-based, human. The following applies: 24 hour treatment, n = 3. From the text: Temporal or occipital human scalp skin was obtained from subjects undergoing face-lift or hair transplant surgery with informed consent and ethics approval. Anagen VI hair follicles were isolated and maintained according to the method described in Philpott et al (J. Cell Sci 97, 463-471 (1990)). Dhurat et al (Int J Trichology, 2(2), 96-100 (July-December 2010)) describe that anagen is conventionally divided into six stages, Anagen I-V (proanagen), when the hair shaft grows within the hair follicle, and Anagen VI ([…]), when the tip of the hair shaft emerges from the hair follicle. Hair follicles were stabilised in RNAlater (for PCR). Five individual Anagen VI hair follicles were used for each culture condition/patient. […] RNA was extracted using the Qiagen RNeasy Microkit (maximum 5 mg tissue per extraction). […] cDNA was diluted 1:10 in RNase free water. […] Plates were run on an Applied Biosystems StepOnePlusTM Real Time PCR machine. Fast cycling conditions were used, utilising a 2 minute polymerase activation step at 95° C., followed by 45 cycles of denaturing at 95° C. for 1 second, and annealing/extension at 60° C. for 20 seconds. […] Data was analysed by the ΔΔCt methodology The test compounds were sulforaphane, an NRF2 agonist, and 22(R)-hydroxycholesterol, a liver X receptor α/β agonist, and mixtures thereof.
(Quantitative PCR measures a nucleic acid by following its amplification.)

Assay [2] concerns hemeoxygenase-1 (HO-1) protein. The assay is described as follows: HO-1 ELISA of lysates of treated HaCaT cells. Type of assay: cell-based, human. The following applies: 24 hours, n = 3. How it is done:
HaCaT (immortal human keratinocyte) cells (P42) were stored in liquid nitrogen and revived in DMEM containing 10% FBS. The cells were sub-cultured and cryostocks made in 10% DMEM containing 10% DMSO from the first two passages. Cells were routinely plated out in 6-well tissue culture dishes, at a seeding density of ˜5000 cells/cm2 in 2 ml complete medium/well for 24 hours, and incubated at 37° C. in 5% CO2. Test solutions were prepared in ethanol or DMSO and added directly to the cells and treated for 24 hours. The cells were then pelleted. All cell pellets were lysed on ice for 30 minutes in 1 ml cell lysis buffer per 2.5×10^6 cells. The lysis buffer contained 1% NP-40, 0.1% sodium deoxycholate, 0.1% SDS, 6 mM sodium chloride and 0.05 M Tris at pH 7.6. […] Sigma P8340) was added prior to use at a level of 10 μl per ml of lysis buffer. The clarified cell lysate was frozen at −80° C. until needed. The total protein concentration of each cell lysate was measured using the Pierce BCA protein assay kit. […] The reagent solution was prepared according to the kit instructions from 50 parts reagent A and 1 part reagent B. 200 μl of the final reagent was added to each well of the microtitre plate. The plate was mixed, covered and incubated at 37° C. for 30 minutes and absorbance read at 562 nm. A protein standard curve was constructed and used to determine the protein concentration of each cell lysate. HO-1 ELISA (R & D Systems) The hemeoxygenase-1 (HO-1) protein concentration of each cell lysate was assayed using the DuoSet Human Total HO-1/HMOX1 assay (R&D Systems DYC3776) according to the manufacturer's instructions. […] The HO-1 capture antibody was diluted to a concentration of 8 μg/ml in PBS and was bound to the microtitre plate (Greiner Bio-One) overnight at room temperature. The unbound antibody was then removed by washing 3 times with wash buffer (0.05% Tween 20 in PBS) on an automatic plate washer. […] The plate was washed as before. 100 μl of 1/200 diluted streptavidin horseradish peroxidase (HRP) was added to each well and incubated in the dark for 20 minutes at room temperature. The plate was washed as before and then 100 μl of substrate solution (R&D Systems DY999, 1:1 mixture of Colour Reagent A and Colour Reagent B) was added to each well and incubated, in the dark at room temperature, until colour developed (approx 20 minutes). 50 μl of stop solution (2M H2SO4) was applied to each well and the plate read on a microplate reader (Dynex MRX) at 450 nm with wavelength correction set at 540 nm. A standard curve was plotted of mean OD versus HO-1 concentration and the line of best fit calculated by regression analysis. The unknown concentration of HO-1 protein in all the samples was calculated from this. The results were normalised using the total protein data and expressed as ng HO-1 per μg protein. The test compounds were sulforaphane, an NRF2 agonist, and 22(R)-hydroxycholesterol, a liver X receptor α/β agonist, and mixtures thereof.
Background: In an ELISA, binding on a coated surface is turned into a signal by an enzyme label.

For assay [3], the system named is antioxidant response element (ARE). The assay is described as follows: HaCaT cell with antioxidant response element (ARE) reporter gene (luciferase) assay. The following applies: n = 3. Type of assay: cell-based, human. How it is done: HaCaT (immortal human keratinocyte) cells (P42) were stored in liquid nitrogen and revived in DMEM containing 10% FBS. The cells were sub-cultured and cryostocks made in 10% DMEM containing 10% DMSO from the first two passages.
To generate a stable cell line, the optimal antibiotic concentration was determined for selecting stable cell colonies. A kill curve was performed using untransfected HaCaT cells to evaluate their hygromycin B sensitivity (as the ARE-luciferase construct to be used for transfection contains the gene for hygromycin B resistance). HaCaT cells were plated in a 24-well tissue culture plate at a cell density of ˜80,000 cells per well. 24 hours later the cells were treated with different concentrations of Hygromycin B (ranging from 100 μg/ml to 800 μg/ml for seven days).
pGL4.37 (luc2P/ARE/Hygro) vector (Promega Cat. No. #E3641) transformed into DH5α competent cells (Invitrogen Cat. No. #18263-012). These were then plated on to an LB-ampicillin plate and kept overnight at 37° C. in an incubator.
The next day, single colonies were picked and inoculated in 5 ml LB Amp medium and kept at 37° C. for 8 hours in a shaker incubator at 250 rpm. The starter culture was then inoculated at 1:100 in 100 ml LB Amp medium. 24 hours later, the culture was harvested and transfection grade plasmid prepared using Sigma's Plasmid Midiprep Kit (Cat. No. #PLD35-1KT).
HaCaT cells were plated in 6-well tissue culture plate at a cell density of 500,000 cells per well. After 24 hours, the cells were transfected with 2 μg of endotoxin-free transfection grade pGL4.37 [luc2P/ARE/Hygro] vector in duplicates using Lipofectamine 2000 Reagent (Invitrogen) as per manufacturer's protocol. After transfection, HaCaT cells were allowed to grow and to express the protein for Hygromycin B resistance under non-selective conditions for 24 hours. One day post transfection cells were treated with Hygromycin B at a concentration of 400 μg/ml to initiate the antibiotic selection pressure. For the selection of stably expressing cells, HaCaT cells were grown in 10% DMEM medium containing 400 μg/ml of Hygromycin B. Under Hygromycin B selective conditions, resistant cells will outgrow non-resistant cells thereby resulting in a polyclonal population of stably-expressing cells. Stably expressing HaCaT cells were fed every 2-3 days with 400 μg/ml Hygromycin B selection medium. After 3 weeks of selection with 400 μg/ml of Hygromycin B medium stable pools were observed on the plate. Individual clones were picked using cloning rings and transferred to 96-well plate and expanded up to T25 cm^2 flask. Out of a dozen individual clones, clone 7 was chosen and validated for expression of luciferase upon treatment with D,L-sulforaphane.
HaCaT_ARE_luc2P_Clone_7 cells were seeded in a 96 well plate at a cell density of ˜7.5×10^3 cells per well. 24 hours later D, L-sulforaphane was added at increasing concentrations (0 μM, 0.2 μM, 0.4 μM, 0.6 μM, 0.8 μM and 1 μM). A standard curve for the luciferase assay was generated for relative light units (RLU) for HaCaT_ARE_Clone_7 cells treated with increasing concentrations of D,L-sulforaphane.
HaCaT_ARE_luc2P_Clone_7 cells were seeded in 96 well plates at a cell density of ˜7,500 cells per well. All test compounds were added to the cells at a final dilution of 1:1000 and the luciferase assay performed.
The following combinations of test compounds were evaluated in the assay: • (a) granilin, an NRF2 agonist, and 22(R)-hydroxycholesterol, a liver X receptor α/β agonist; • (b) granilin and 3-[3-[[[2-chloro-3-(trifluoromethyl)phenyl]methyl](2,2-diphenylethyl) amino]propoxy]benzeneacetic acid hydrochloride (also known as GW 3965 hydrochloride and available from Tocris), a liver X receptor α/β agonist; and • (c) granilin and stigmasterol, a liver X receptor α/β agonist. Results

Another assay has as its system HO-1. The following applies: hair follicles treated with sulforaphane; cited from earlier work.

Consider `CC(C)CC[C@@H](O)[C@@H](C)[C@H]1CC[C@H]2[C@@H]3CC=C4C[C@@H](O)CC[C@]4(C)[C@H]3CC[C@]12C` [22(R)-hydroxycholesterol], for which the “NQO-1 Fold change compared to 18S” value in assay [1] (5 μM) is 1.04 ± 0.05 Fold change. The “HO-1 protein (ng HO-1 per μg protein)” value in assay [2] (1 μM single compound) is 1.486 ± 0.387 ng HO-1 per μg protein; in assay [2] (10 μM single compound), 3.174 ± 0.119 ng HO-1 per μg protein. Also, the RLU in assay [3] (1 μM single compound) was 1.17 ± 0.03 RLU; in assay [3] (10 μM single compound), 0.67 ± 0.01 RLU.

As to `Cl.O=C(O)Cc1cccc(OCCCN(Cc2cccc(C(F)(F)F)c2Cl)CC(c2ccccc2)c2ccccc2)c1` [GW 3965 hydrochloride, 3-[3-[[[2-chloro-3-(trifluoromethyl)phenyl]methyl](2,2-diphenylethyl)amino]propoxy]benzeneacetic acid hydrochloride], the RLU in assay [3] (1 μM single compound) was 1.02 ± 0.02 RLU; in assay [3] (10 μM single compound) it was 0.63 ± 0.01 RLU.

For `C=C1C(=O)O[C@@H]2C[C@@]3(C)[C@@H](O)C[C@@H](O)C(=C)[C@@H]3C[C@H]12` [granilin], the RLU in assay [3] (1 μM single compound) came to 3.77 ± 0.31 RLU; in assay [3] (5 μM single compound) it was 15.04 ± 0.18 RLU.

On to `CC[C@H](/C=C/[C@@H](C)[C@H]1CC[C@H]2[C@@H]3CC=C4C[C@@H](O)CC[C@]4(C)[C@H]3CC[C@]12C)C(C)C` [stigmasterol], for which the figures for the RLU in assay [3] (1 μM single compound) and in assay [3] (10 μM single compound) were 0.78 ± 0.02 RLU and 0.69 ± 0.00 RLU, respectively.

As to `C[S+]([O-])CCCCN=C=S` (stereo not shown) [sulforaphane], in the assay on HO-1, the “HO-1 in the mesenchymal connective tissue sheath” value is on record as “up-regulation of HO-1”. Moreover, the “NQO-1 Fold change compared to 18S” value in assay [1] (10 μM) is on record as 5.44 ± 0.50 Fold change. In addition, the “HO-1 protein (ng HO-1 per μg protein)” value in assay [2] (0.01 μM single compound) was 1.602 ± 0.248 ng HO-1 per μg protein; in assay [2] (0.05 μM single compound), 1.600 ± 0.385 ng HO-1 per μg protein; in assay [2] (1 μM single compound), 1.910 ± 0.418 ng HO-1 per μg protein.
